Test results as given in patent US20230398130A1, “METHODS AND COMPOSITIONS FOR DIFFERENTIATING STEM CELLS” (Massachusetts Institute of Technology, priority 2020, published 2023).

Experiments:
ISC-enriched organoids [1] = assay: Primary screen, 384-well 2.5-D organoid differentiation (ENR+CD, 6 days): basal lysozyme secretion (LYZ.NS); assay type: cell-based, murine; details: for Dose.FC.LYZ.NS: FC vs plate median; for SSMD.LYZ.NS: strictly standardized mean difference
Text: (§1) High-throughput screening.

ISC-enriched organoids [2] = assay: Primary screen, 384-well 2.5-D organoid differentiation (ENR+CD, 6 days): carbachol-induced lysozyme secretion (LYZ.S); assay type: cell-based, murine; details: primary screen; for Dose.FC.LYZ.S: FC vs plate median; for Z.LYZ.S: standard z score; for SSMD.LYZ.S: strictly standardized mean difference
Text: as §1

ISC-enriched organoids [3] = assay: Primary screen, 384-well 2.5-D organoid differentiation (ENR+CD, 6 days, Target Selective Inhibitor Library, vs whole-plate median): ATP (CellTiter-Glo 3D, CTG); details: for Dose.FC.CTG: FC vs plate median; for SSMD.CTG: strictly standardized mean difference
[4] = Dose 0.08 uM, standard z score of FC
[5] = Dose 0.40 uM, standard z score of FC
[6] = Dose 2.00 uM, standard z score of FC
[7] = Dose 10.00 uM, standard z score of FC
[8] = primary screen, 1st of the 4 dose lines of the treatment (dose not given)
[9] = primary screen, 2nd of the 4 dose lines of the treatment (dose not given)
[10] = primary screen, 3rd of the 4 dose lines of the treatment (dose not given)
[11] = primary screen, 4th of the 4 dose lines of the treatment (dose not given)
[12] = 1st of the 4 dose lines of the treatment (dose not given)
[13] = 2nd of the 4 dose lines of the treatment (dose not given)
[14] = 3rd of the 4 dose lines of the treatment (dose not given)
[15] = 4th of the 4 dose lines of the treatment (dose not given)
[16] = Dose 0.08 uM, primary screen, standard z score
[17] = Dose 0.40 uM, primary screen, standard z score
[18] = Dose 2.00 uM, primary screen, standard z score
[19] = Dose 10.00 uM, primary screen, standard z score
[20] = primary screen, dose 0.08 uM, ENR+CD 6 days
[21] = primary screen, dose 0.08 uM, standard z score of FC
[22] = primary screen, dose 0.40 uM, ENR+CD 6 days
[23] = primary screen, dose 0.40 uM, standard z score of FC
[24] = primary screen, dose 2.00 uM, ENR+CD 6 days
[25] = primary screen, dose 2.00 uM, standard z score of FC
[26] = primary screen, dose 10.00 uM, ENR+CD 6 days
[27] = primary screen, dose 10.00 uM, standard z score of FC

O=C(NCCN1CCOCC1)c1ccc(Cl)cc1 [Moclobemide (Ro 111163)]
Dose.FC.LYZ.NS (ISC-enriched organoids [1]; Dose 0.08 uM, primary screen): 0.075 log 2 fold change | Z.LYZ.NS (ISC-enriched organoids [1]; [4]): 0.654 | Dose.FC.LYZ.NS (ISC-enriched organoids [1]; Dose 0.40 uM, primary screen): 0.121 log 2 fold change | Z.LYZ.NS (ISC-enriched organoids [1]; [5]): 1.055 | Dose.FC.LYZ.NS (ISC-enriched organoids [1]; Dose 2.00 uM, primary screen): 0.001 log 2 fold change | Z.LYZ.NS (ISC-enriched organoids [1]; [6]): 0.011 | Dose.FC.LYZ.NS (ISC-enriched organoids [1]; Dose 10.00 uM, primary screen): −0.028 log 2 fold change | Z.LYZ.NS (ISC-enriched organoids [1]; [7]): −0.243 | SSMD.LYZ.NS (ISC-enriched organoids [1]; [8]): 0.302 | SSMD.LYZ.NS (ISC-enriched organoids [1]; [9]): 0.415 | SSMD.LYZ.NS (ISC-enriched organoids [1]; [10]): 0.007 | SSMD.LYZ.NS (ISC-enriched organoids [1]; [11]): −0.219 | Dose.FC.LYZ.S (ISC-enriched organoids [2]; Dose 0.08 uM): 0.147 log 2 fold change | Dose.FC.LYZ.S (ISC-enriched organoids [2]; Dose 0.40 uM): 0.094 log 2 fold change | Dose.FC.LYZ.S (ISC-enriched organoids [2]; Dose 2.00 uM): 0.012 log 2 fold change | Dose.FC.LYZ.S (ISC-enriched organoids [2]; Dose 10.00 uM): 0.019 log 2 fold change | Z.LYZ.S (ISC-enriched organoids [2]; [12]): 0.953 | Z.LYZ.S (ISC-enriched organoids [2]; [13]): 0.607 | Z.LYZ.S (ISC-enriched organoids [2]; [14]): 0.078 | Z.LYZ.S (ISC-enriched organoids [2]; [15]): 0.123 | SSMD.LYZ.S (ISC-enriched organoids [2]; [12]): 0.495 | SSMD.LYZ.S (ISC-enriched organoids [2]; [13]): 0.348 | SSMD.LYZ.S (ISC-enriched organoids [2]; [14]): 0.056 | SSMD.LYZ.S (ISC-enriched organoids [2]; [15]): 0.135 | Dose.FC.CTG (ISC-enriched organoids [3]; Dose 0.08 uM, primary screen): 0.146 log 2 fold change | Z.CTG (ISC-enriched organoids [3]; [4]): 0.348 | Dose.FC.CTG (ISC-enriched organoids [3]; Dose 0.40 uM, primary screen): 0.106 log 2 fold change | Z.CTG (ISC-enriched organoids [3]; [5]): 0.252 | Dose.FC.CTG (ISC-enriched organoids [3]; Dose 2.00 uM, primary screen): 0.116 log 2 fold change | Z.CTG (ISC-enriched organoids [3]; [6]): 0.276 | Dose.FC.CTG (ISC-enriched organoids [3]; Dose 10.00 uM, primary screen): 0.042 log 2 fold change | Z.CTG (ISC-enriched organoids [3]; [7]): 0.100 | SSMD.CTG (ISC-enriched organoids [3]; [8]): 0.257 | SSMD.CTG (ISC-enriched organoids [3]; [9]): 0.148 | SSMD.CTG (ISC-enriched organoids [3]; [10]): 0.227 | SSMD.CTG (ISC-enriched organoids [3]; [11]): 0.115

Cc1cccc(CC(=O)N2CCc3c2ccc(-c2cn(C)c4ncnc(N)c24)c3F)n1 [GSK2656157]
Dose.FC.LYZ.NS (ISC-enriched organoids [1]; Dose 0.08 uM, primary screen): −0.031 log 2 fold change | Z.LYZ.NS (ISC-enriched organoids [1]; [16]): −0.267 | Dose.FC.LYZ.NS (ISC-enriched organoids [1]; Dose 0.40 uM, primary screen): −0.045 log 2 fold change | Z.LYZ.NS (ISC-enriched organoids [1]; [17]): −0.396 | Dose.FC.LYZ.NS (ISC-enriched organoids [1]; Dose 2.00 uM, primary screen): −0.033 log 2 fold change | Z.LYZ.NS (ISC-enriched organoids [1]; [18]): −0.291 | Dose.FC.LYZ.NS (ISC-enriched organoids [1]; Dose 10.00 uM, primary screen): −0.012 log 2 fold change | Z.LYZ.NS (ISC-enriched organoids [1]; [19]): −0.102 | Dose.FC.LYZ.S (ISC-enriched organoids [2]; Dose 0.08 uM): −0.008 log 2 fold change | Dose.FC.LYZ.S (ISC-enriched organoids [2]; Dose 0.40 uM): 0.060 log 2 fold change | Dose.FC.LYZ.S (ISC-enriched organoids [2]; Dose 2.00 uM): −0.020 log 2 fold change | Dose.FC.LYZ.S (ISC-enriched organoids [2]; Dose 10.00 uM): 0.090 log 2 fold change | Dose.FC.CTG (ISC-enriched organoids [3]; Dose 0.08 uM, primary screen): 0.068 log 2 fold change | Z.CTG (ISC-enriched organoids [3]; [16]): 0.162 | Dose.FC.CTG (ISC-enriched organoids [3]; Dose 0.40 uM, primary screen): 0.115 log 2 fold change | Z.CTG (ISC-enriched organoids [3]; [17]): 0.274 | Dose.FC.CTG (ISC-enriched organoids [3]; Dose 2.00 uM, primary screen): 0.083 log 2 fold change | Z.CTG (ISC-enriched organoids [3]; [18]): 0.197 | Dose.FC.CTG (ISC-enriched organoids [3]; Dose 10.00 uM, primary screen): 0.119 log 2 fold change | Z.CTG (ISC-enriched organoids [3]; [19]): 0.284

C/C(=C\C(=O)Nc1ccccc1C(=O)O)c1ccc2ccccc2c1 [BIBR 1532]
Dose.FC.LYZ.NS (ISC-enriched organoids [1]; [20]): 0.032 log 2 fold change | Z.LYZ.NS (ISC-enriched organoids [1]; [21]): 0.282 | Dose.FC.LYZ.NS (ISC-enriched organoids [1]; [22]): 0.043 log 2 fold change | Z.LYZ.NS (ISC-enriched organoids [1]; [23]): 0.377 | Dose.FC.LYZ.NS (ISC-enriched organoids [1]; [24]): −0.013 log 2 fold change | Z.LYZ.NS (ISC-enriched organoids [1]; [25]): −0.117 | Dose.FC.LYZ.NS (ISC-enriched organoids [1]; [26]): −0.062 log 2 fold change | Z.LYZ.NS (ISC-enriched organoids [1]; [27]): −0.536 | Dose.FC.LYZ.S (ISC-enriched organoids [2]; dose 0.08 uM, ENR+CD 6 days): 0.028 log 2 fold change | Dose.FC.LYZ.S (ISC-enriched organoids [2]; dose 0.40 uM, ENR+CD 6 days): 0.107 log 2 fold change | Dose.FC.LYZ.S (ISC-enriched organoids [2]; dose 2.00 uM, ENR+CD 6 days): −0.081 log 2 fold change | Dose.FC.LYZ.S (ISC-enriched organoids [2]; dose 10.00 uM, ENR+CD 6 days): −0.114 log 2 fold change | Dose.FC.CTG (ISC-enriched organoids [3]; [20]): 0.223 log 2 fold change | Z.CTG (ISC-enriched organoids [3]; [21]): 0.533 | Dose.FC.CTG (ISC-enriched organoids [3]; [22]): −0.047 log 2 fold change | Z.CTG (ISC-enriched organoids [3]; [23]): −0.113 | Dose.FC.CTG (ISC-enriched organoids [3]; [24]): −0.034 log 2 fold change | Z.CTG (ISC-enriched organoids [3]; [25]): −0.080 | Dose.FC.CTG (ISC-enriched organoids [3]; [26]): 0.030 log 2 fold change | Z.CTG (ISC-enriched organoids [3]; [27]): 0.072
